Measurements: ChEMBL document CHEMBL1155792, “QSAR prediction of inhibition of aldose reductase for flavonoids” (Bioorg Med Chem, 2008)

Target: Aldo-keto reductase family 1 member B1 (Rattus norvegicus, UniProt P07943)
Assay: Inhibition of rat lens aldose reductase

Compound	IC50
COc1c(-c2ccc(O)c(O)c2)oc2c(OC)c(O)cc(O)c2c1=O	0.24 µM
COc1cc(O)cc2oc(-c3ccccc3)cc(=O)c12	1000 µM
COc1cc(-c2cc(=O)c3c(OC)c(OC)c(OC)c(OC)c3o2)ccc1O	18.6 µM
COc1c(O)c(OC)c2c(=O)cc(-c3ccccc3)oc2c1OC	288 µM
O=c1cc(-c2ccccc2O)oc2cc(O)ccc12	1.66 µM
COc1cc2oc(-c3ccc(O)c(O)c3)c(C(C)=O)c(=O)c2c(OC)c1OC	8.91 µM
COc1cc(-c2cc(=O)c3c(O)c(OC)c(OC)cc3o2)ccc1OC1O[C@H](CO)[C@@H](O)[C@H](O)[C@H]1O (some centres not stated)	13.2 µM
COc1cc2oc(-c3ccc(O)c(O)c3)cc(=O)c2c(O)c1O	0.302 µM
COc1cc(OC)c2c(=O)c(OC)c(-c3ccc(O)c(O)c3)oc2c1OC	0.17 µM
COc1c(O)cc(O)c2c(=O)cc(-c3ccc(O)c(O)c3)oc12	0.282 µM
COc1c(-c2ccc(O)c(O)c2)oc2c(OC)c(O)cc(OC)c2c1=O	0.282 µM
COc1c(OC(C)=O)c(OC(C)=O)c(OC(C)=O)c2c(=O)cc(-c3ccc(OC(C)=O)c(OC(C)=O)c3)oc12	0.302 µM
COc1cc(-c2cc(=O)c3c(O)c(OC)c(O)c(OC)c3o2)ccc1OC1O[C@H](CO)[C@@H](O)[C@H](O)[C@H]1O (some centres not stated)	18.2 µM
COc1cc(-c2cc(=O)c3c(O)c(OC)c(OC4O[C@H](CO)[C@@H](O)[C@H](O)[C@H]4O)c(OC)c3o2)ccc1O (some centres not stated)	20.9 µM
COc1cc2oc(-c3ccc(O)c(O)c3)c(OC)c(=O)c2c(OC)c1OC	0.269 µM
COc1cc(-c2cc(=O)c3c(OC)c(O)c(OC)c(OC)c3o2)ccc1O	6.31 µM
COc1cc2oc(-c3ccc(O)c(O)c3)c(OC)c(=O)c2c(OC)c1O	0.302 µM
COc1c(-c2ccc(O)c(O)c2)oc2cc(O)c(O)c(O)c2c1=O	0.0575 µM
COc1c(O)cc(OC)c2c(=O)cc(-c3ccc(O)c(O)c3)oc12	0.0741 µM

Compound	IC50
COc1cc(OC)c2c(=O)cc(-c3ccc(O)c(O)c3)oc2c1O	0.162 µM
C[C@H]1OC(Oc2c(-c3ccc(O)c(O)c3)oc3cc(O)cc(O)c3c2=O)[C@@H](O)[C@@H](O)[C@@H]1O (some centres not stated)	1.17 µM
O=c1cc(-c2ccc(O)cc2)oc2ccc(O)cc12	5.25 µM
COc1cc2oc(-c3ccc(OC4O[C@H](CO)[C@@H](O)[C@H](O)[C@H]4O)c(O)c3)cc(=O)c2c(O)c1OC (some centres not stated)	8.2 µM
COc1cc(O)c2c(=O)cc(-c3cc(OC)c(O)cc3OC)oc2c1	1000 µM
O=c1cc(-c2ccc(O)cc2O)oc2cc(O)ccc12	2.29 µM
COc1cc(OC)c2c(=O)cc(-c3ccc(O)c(O)c3)oc2c1OC	0.0447 µM
COc1cc2oc(-c3ccc(O)c(O)c3)cc(=O)c2c(OC)c1OC	0.0912 µM
COc1cc(O)c2c(=O)cc(-c3ccc(O)c(O)c3)oc2c1OC	0.0776 µM
O=c1cc(-c2ccc(O)c(O)c2)oc2cc(O)c(O)c(O)c12 [6-HYDROXYLUTEOLIN]	0.204 µM
COc1c(O)cc2oc(-c3ccc(O)c(O)c3)c(OC)c(=O)c2c1O [AXILLARIN]	0.028 µM
COc1cc2oc(-c3ccc(O)c(O)c3)c(OC)c(=O)c2c(O)c1OC [CHRYSOSPLENOL D]	0.348 µM
COc1cc(-c2cc(=O)c3c(O)c(OC)c(OC)cc3o2)ccc1O [CIRSILENEOL]	6.76 µM
COc1cc2oc(-c3ccc(O)c(O)c3)cc(=O)c2c(O)c1OC [CIRSILIOL]	0.17 µM
COc1cc2oc(-c3ccc(O)cc3)cc(=O)c2c(O)c1OC [CIRSIMARITIN]	1.41 µM
COc1ccc(-c2cc(=O)c3c(O)c(OC)c(O)c(OC)c3o2)cc1 [NEVADENSIN]	7.24 µM
COc1c(OC)c(O)c2c(=O)cc(-c3ccc(O)c(O)c3)oc2c1OC [SIDERITIFLAVONE]	0.0389 µM
COc1cc(-c2cc(=O)c3c(O)c(OC)c(O)c(OC)c3o2)ccc1O [SUDACHITIN]	4.47 µM
COc1c(OC)c(O)c2c(=O)cc(-c3ccc(O)cc3)oc2c1OC [XANTHOMICROL]	0.537 µM

Other lines, results leading:

IC50	Compound
0.0324 µM	COc1c(OC)c(OC)c2c(=O)cc(-c3ccc(O)c(O)c3)oc2c1OC
1.2 µM	COc1cc(-c2cc(=O)c3c(O)c(O)c(O)c(OC)c3o2)ccc1O
0.229 µM	COc1cc(O)c2c(=O)cc(-c3ccc(O)c(O)c3)oc2c1O
0.407 µM	COc1c(O)c(OC)c2oc(-c3ccc(O)cc3)cc(=O)c2c1O
0.0339 µM	COc1c(O)c(Cc2ccccc2)c2oc(-c3ccc(O)c(O)c3)cc(=O)c2c1O
0.035 µM	COc1c(O)c(OC)c2c(=O)cc(-c3ccc(O)c(O)c3)oc2c1OC
316 µM	COc1cc(O)c2c(=O)cc(-c3cc(O)c(OC)cc3OC)oc2c1
8.13 µM	COc1c(O)c(O)c(O)c2c(=O)cc(-c3ccccc3)oc12
8.39 µM	COc1c(O)c(O)c2c(=O)cc(-c3ccccc3)oc2c1OC
110 µM	COc1cc(-c2cc(=O)c3c(O)c(O)c(OC)c(OC)c3o2)ccc1O
0.851 µM	COc1c(O)c(O)c2c(=O)cc(-c3ccc(O)cc3)oc2c1OC
0.0646 µM	COc1c(O)c(O)c2c(=O)cc(-c3ccc(O)c(O)c3)oc2c1OC
0.12 µM	COc1c(O)c(O)c(O)c2c(=O)cc(-c3ccc(O)c(O)c3)oc12
0.141 µM	COc1cc2oc(-c3ccc(O)c(O)c3)cc(=O)c2c(OC)c1O
0.813 µM	COc1cc2oc(-c3ccc(O)c(O)c3)c(OC)c(=O)c2c(O)c1O
29.5 µM	COc1ccc(-c2cc(=O)c3c(O)c(OC)c(O)c(OC)c3o2)cc1OC
16.2 µM	COc1cc2oc(-c3ccc(OC4O[C@H](CO)[C@@H](O)[C@H](O)[C@H]4O)cc3)cc(=O)c2c(O)c1OC (some centres not stated)
1.2 µM	COc1c(O)c(O)c(O)c2c(=O)cc(-c3ccc(O)cc3)oc12
45.7 µM	COc1cc(-c2cc(=O)c3c(O)c(OC)c(OC)c(OC)c3o2)ccc1O
